The target in data set [1] is T1, Human COX II (Homo sapiens, UniProt P35354).
T1 construct: A 2.0 kb fragment containing the coding region of either human or murine COX-I or human or murine COX-II; made in house; host or cells: SF9 insect cells (recombinant baculovirus, transfer vector pVL1393)
T1 sequence (P35354 18-604): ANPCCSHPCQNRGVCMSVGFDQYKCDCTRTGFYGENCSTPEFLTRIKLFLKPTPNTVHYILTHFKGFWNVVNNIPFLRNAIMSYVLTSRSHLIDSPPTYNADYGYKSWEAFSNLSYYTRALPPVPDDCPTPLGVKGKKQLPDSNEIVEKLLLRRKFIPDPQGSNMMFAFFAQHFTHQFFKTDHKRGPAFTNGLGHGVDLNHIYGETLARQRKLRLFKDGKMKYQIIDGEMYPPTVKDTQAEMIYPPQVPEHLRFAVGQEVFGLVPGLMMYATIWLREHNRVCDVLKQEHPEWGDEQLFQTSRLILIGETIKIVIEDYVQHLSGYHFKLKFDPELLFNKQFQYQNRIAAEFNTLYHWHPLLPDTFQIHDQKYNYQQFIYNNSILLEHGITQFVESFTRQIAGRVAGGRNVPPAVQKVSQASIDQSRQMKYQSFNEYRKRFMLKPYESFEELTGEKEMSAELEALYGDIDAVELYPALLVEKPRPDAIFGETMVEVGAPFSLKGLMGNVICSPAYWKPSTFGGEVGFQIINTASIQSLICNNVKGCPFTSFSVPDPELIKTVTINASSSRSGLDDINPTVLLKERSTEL
The experiment in a line: COX II activity in vitro (PGE2 ELISA, recombinant enzyme). The data set is classed as biochemical. To be noted: arachidonic acid 10 μM, pre-incubation 10-20 minutes; read-out: Human COX II ID50.

For data set [2], the target named is T2, Human COX I (Homo sapiens, UniProt P23219).
T2 construct: A 2.0 kb fragment containing the coding region of either human or murine COX-I or human or murine COX-II; made in house; host or cells: SF9 insect cells (recombinant baculovirus, transfer vector pVL1393)
The experiment in a line: COX I activity in vitro (PGE2 ELISA, recombinant enzyme). The data set is classed as biochemical. To be noted: arachidonic acid 10 μM, pre-incubation 10-20 minutes; read-out: Human COX I ID50. A general note: An ELISA detects its analyte on a solid surface through an enzyme-linked reagent.

Data set [3] deals with carrageenan-induced hyperalgesic foot withdrawal. As to the kind of experiment: Rat Carrageenan-induced Analgesia Test. The data set is classed as in vivo. To be noted: 50 mg/kg body weight, oral, 3 h after carrageenan. Here is the method: The analgesia test using rat carrageenan was performed with materials, reagents and procedures essentially as described by Hargreaves, et al., (Pain, 32, 77 (1988)). Male Sprague-Dawley rats were treated as previously described for the Carrageenan Foot Pad Edema test. Three hours after the injection of the carrageenan, the rats were placed in a special plexiglass container with a transparent floor having a high intensity lamp as a radiant heat source, positionable under the floor. After an initial twenty minute period, thermal stimulation was begun on either the injected foot or on the contralateral uninjected foot. A photoelectric cell turned off the lamp and timer when light was interrupted by paw withdrawal. The time until the rat withdraws its foot was then measured. The withdrawal latency in seconds was determined for the control and drug-treated groups, and percent inhibition of the hyperalgesic foot withdrawal determined.

Data set [4] has as its system carrageenan foot edema. As to the kind of experiment: Rat Carrageenan Foot Pad Edema Test. The data set is classed as in vivo. The settings on record: 30 mg/kg body weight, oral, dosed 1 h before carrageenan, foot volume 3 h after carrageenan. Here is the method: The carrageenan foot edema test was performed with materials, reagents and procedures essentially as described by Winter, et al., (Proc. Soc. Exp. Biol. Med., 111, 544 (1962)). Male Sprague-Dawley rats were selected in each group so that the average body weight was as close as possible. Rats were fasted with free access to water for over sixteen hours prior to the test. The rats were dosed orally (1 ml) with compounds suspended in vehicle containing 0.5% methylcellulose and 0.025% surfactant, or with vehicle alone. One hour later a subplantar injection of 0.1 ml of 1% solution of carrageenan/sterile 0.9% saline was administered and the volume of the injected foot was measured with a displacement plethysmometer connected to a pressure transducer with a digital indicator. Three hours after the injection of the carrageenan, the volume of the foot was again measured. The average foot swelling in a group of drug-treated animals was compared with that of a group of placebo-treated animals and the. percentage inhibition of edema was determined (Otterness and Bliven, Laboratory Models for Testing NSAIDs, in Non-steroidal Anti-Inflammatory Drugs, (J. Lombardino, ed. 1985)).
In general terms: In the carrageenan paw model, swelling and tenderness develop within hours.

Marks after values point to notes of the source that are not given here.

T2 sequence (P23219 24-599): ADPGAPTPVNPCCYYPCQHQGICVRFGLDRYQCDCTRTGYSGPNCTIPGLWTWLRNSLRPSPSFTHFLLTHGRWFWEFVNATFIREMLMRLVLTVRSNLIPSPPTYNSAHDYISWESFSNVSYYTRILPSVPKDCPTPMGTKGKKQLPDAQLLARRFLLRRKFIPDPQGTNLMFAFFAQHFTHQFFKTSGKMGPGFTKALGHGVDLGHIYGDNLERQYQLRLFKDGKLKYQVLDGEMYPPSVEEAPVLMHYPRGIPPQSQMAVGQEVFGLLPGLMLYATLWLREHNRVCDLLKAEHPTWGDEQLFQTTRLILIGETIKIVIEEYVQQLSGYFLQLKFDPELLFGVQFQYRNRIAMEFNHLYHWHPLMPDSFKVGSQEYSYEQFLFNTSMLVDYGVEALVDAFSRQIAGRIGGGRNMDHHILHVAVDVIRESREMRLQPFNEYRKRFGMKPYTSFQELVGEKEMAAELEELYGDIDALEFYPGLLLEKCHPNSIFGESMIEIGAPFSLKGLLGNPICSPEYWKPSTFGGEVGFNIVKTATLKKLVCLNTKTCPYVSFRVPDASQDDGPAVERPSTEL

`CS(=O)(=O)c1ccc(-c2nc(C(F)(F)F)[nH]c2-c2cccs2)cc1` [Example 70, 4-[4-(Methylsulfonyl)phenyl]-5-(2-thiophenyl)-2-(trifluoromethyl)-1H-imidazole] gave a melting point of 95 to 97 °C. Besides, the IC50 in data set [1] was 1400 nM. In addition, the IC50 in data set [2] is above 100000 nM. In addition, the “ANALGESIA % Inhibition” value in data set [3] was 29* %. Besides, the “RAT PAW EDEMA % Inhibition” value in data set [4] came out at 27%.

The melting point is the temperature of the solid-liquid transition.

For the origin of these results see patent US6426360B1, “4,5-substituted imidazolyl compounds for the treatment of inflammation” (G D Searle & Co., priority 1994, dated 2002).
